Reference: patent US20200054633A1 (priority 2017, published 2020)
Like-named read-outs stand apart in the source and are kept apart here.

What was measured:
Assay type in all cases: in vivo, human
[1] = tested on: acute uncomplicated seasonal influenza A; assay: Clinical study: nasal viral load by qRT-PCR (AUC, LS means, time to viral negativity); conditions: for LS Means viral load (qRT-PCR) Day 3 / LS Means viral load (qRT-PCR) Day 4 / LS Means viral load (qRT-PCR) Day 6 / LS Means viral load (qRT-PCR) Day 8: log10 nasal viral load; for LS Means viral load (qRT-PCR) Day 3 / LS Means viral load (qRT-PCR) Day 4 / LS Means viral load (qRT-PCR) Day 6 / LS Means viral load (qRT-PCR) Day 8 / Change in AUC Viral Load (by qRT-PCR) Days 1 to 8 versus placebo / Time to influenza A negativity (qRT-PCR) Acceleration Factor: Full Analysis Set; for Time to influenza A negativity (qRT-PCR) Acceleration Factor: versus placebo, accelerated failure time model
Influenza A = conditions: for Acceleration Factor, time to Influenza A negativity (TCID50), treatment versus placebo: accelerated failure time model, Full Analysis Set
[2] = Clinical study: treatment-emergent laboratory toxicities, ECG, vital signs; conditions: for Worst treatment-emergent toxicity: Glucose hyperglycemia Grade 3 / Worst treatment-emergent toxicity: ALT increase by factor Grade 3 / Worst treatment-emergent toxicity: ALT increase by factor Grade 4 / Worst treatment-emergent toxicity: AST increase by factor Grade 4 / Worst treatment-emergent toxicity: CPK Grade 3 / Worst treatment-emergent toxicity: CPK Grade 4 / Worst treatment-emergent toxicity: Cholesterol Grade 3 / Worst treatment-emergent toxicity: Hemoglobin - change from baseline Grade 3 / Worst treatment-emergent toxicity: Hyperkalemia Grade 3 / Worst treatment-emergent toxicity: Hyperkalemia Grade 4 / Worst treatment-emergent toxicity: Hypernatremia Grade 3 / Worst treatment-emergent toxicity: Hypernatremia Grade 4 / Worst treatment-emergent toxicity: Hypocalcemia Grade 4 / Worst treatment-emergent toxicity: Hypoglycemia Grade 3 / Worst treatment-emergent toxicity: Hypokalemia Grade 3 / Worst treatment-emergent toxicity: Hypokalemia Grade 4 / Worst treatment-emergent toxicity: Hypomagnesemia Grade 3 / Worst treatment-emergent toxicity: Hyponatremia Grade 3 / Worst treatment-emergent toxicity: Hypophosphatemia Grade 3 / Worst treatment-emergent toxicity: Neutrophils decrease Grade 3 / Worst treatment-emergent toxicity: Neutrophils decrease Grade 4 / Worst treatment-emergent toxicity: Urine RBC increased Grade 3 / Worst treatment-emergent toxicity: Urine WBC increased Grade 3 / Worst treatment-emergent toxicity: Urine glucose increased Grade 3 / Worst treatment-emergent toxicity: Urine protein increased Grade 3: OST placebo; for Worst treatment-emergent toxicity: ALT increase by factor Grade 3 / Worst treatment-emergent toxicity: ALT increase by factor Grade 4 / Worst treatment-emergent toxicity: AST increase by factor Grade 4 / Worst treatment-emergent toxicity: CPK Grade 3 / Worst treatment-emergent toxicity: CPK Grade 4 / Worst treatment-emergent toxicity: Cholesterol Grade 3 / Worst treatment-emergent toxicity: Hemoglobin - change from baseline Grade 3 / Worst treatment-emergent toxicity: Hyperkalemia Grade 3 / Worst treatment-emergent toxicity: Hyperkalemia Grade 4 / Worst treatment-emergent toxicity: Hypernatremia Grade 3 / Worst treatment-emergent toxicity: Hypernatremia Grade 4 / Worst treatment-emergent toxicity: Hypocalcemia Grade 4 / Worst treatment-emergent toxicity: Hypoglycemia Grade 3 / Worst treatment-emergent toxicity: Hypokalemia Grade 3 / Worst treatment-emergent toxicity: Hypokalemia Grade 4 / Worst treatment-emergent toxicity: Hypomagnesemia Grade 3 / Worst treatment-emergent toxicity: Hyponatremia Grade 3 / Worst treatment-emergent toxicity: Hypophosphatemia Grade 3 / Worst treatment-emergent toxicity: Neutrophils decrease Grade 3 / Worst treatment-emergent toxicity: Neutrophils decrease Grade 4 / Worst treatment-emergent toxicity: Urine RBC increased Grade 3 / Worst treatment-emergent toxicity: Urine WBC increased Grade 3 / Worst treatment-emergent toxicity: Urine glucose increased Grade 3 / Worst treatment-emergent toxicity: Urine protein increased Grade 3: Safety Set 74

O=C(O)[C@H]1C2CCC(CC2)[C@@H]1Nc1nc(-c2c[nH]c3ncc(F)cc23)ncc1F [Compound (1), Pimodivir]
LS Means viral load (qRT-PCR) Day 3 ([1]; Cmpd (1) 300 mg + OST placebo): 5.2
LS Means viral load (qRT-PCR) Day 4 ([1]; Cmpd (1) 300 mg + OST placebo): 3.9
LS Means viral load (qRT-PCR) Day 6 ([1]; Cmpd (1) 300 mg + OST placebo): 2.5
LS Means viral load (qRT-PCR) Day 8 ([1]; Cmpd (1) 300 mg + OST placebo): 1.4
LS Means viral load (qRT-PCR) Day 3 ([1]; Cmpd (1) 600 mg + OST placebo): 4.9
LS Means viral load (qRT-PCR) Day 4 ([1]; Cmpd (1) 600 mg + OST placebo): 3.8
LS Means viral load (qRT-PCR) Day 6 ([1]; Cmpd (1) 600 mg + OST placebo): 2.5
LS Means viral load (qRT-PCR) Day 8 ([1]; Cmpd (1) 600 mg + OST placebo): 1.0
reduction of time to viral negativity (qRT-PCR) versus placebo ([1]; Compound (1) 300 mg bid): 13%
Change in AUC Viral Load (by qRT-PCR) Days 1 to 8 versus placebo ([1]; Compound (1) 300 mg bid): −3.6 day*log10 copies/mL
reduction of time to viral negativity (qRT-PCR) versus placebo ([1]; Compound (1) 600 mg bid): 18%
Change in AUC Viral Load (by qRT-PCR) Days 1 to 8 versus placebo ([1]; Compound (1) 600 mg bid): −4.5 day*log10 copies/mL
effect on AUC of viral load (by qRT-PCR) over 7 days from start of dosing ([1]; Compound (1) treatment versus placebo): statistically significant and dose-dependent decrease in AUC of viral load
Time to influenza A negativity (qRT-PCR) Acceleration Factor ([1]; Cmpd (1) 300 mg + OST placebo): 0.87
Time to influenza A negativity (qRT-PCR) Acceleration Factor ([1]; Cmpd (1) 600 mg + OST placebo): 0.82
Acceleration Factor, time to Influenza A negativity (TCID50), treatment versus placebo (Influenza A; Cmpd (1) 300 mg + OST placebo): 0.71
Acceleration Factor, time to Influenza A negativity (TCID50), treatment versus placebo (Influenza A; Cmpd (1) 600 mg + OST placebo): 0.72
reduction in time to negative viral load (viral culture) versus placebo (Influenza A; Compound (1) 300 mg bid): 29%
reduction in time to negative viral load (viral culture) versus placebo (Influenza A; Compound (1) 600 mg bid): 28%
Worst treatment-emergent toxicity: Glucose hyperglycemia Grade 3 ([2]; 300 mg, N 73): 1 (1.4%)
Worst treatment-emergent toxicity: ALT increase by factor Grade 3 ([2]; 300 mg): 0
Worst treatment-emergent toxicity: ALT increase by factor Grade 4 ([2]; 300 mg): 0
Worst treatment-emergent toxicity: AST increase by factor Grade 4 ([2]; 300 mg): 0
Worst treatment-emergent toxicity: CPK Grade 3 ([2]; 300 mg): 1 (1.4%)
Worst treatment-emergent toxicity: CPK Grade 4 ([2]; 300 mg): 0
Worst treatment-emergent toxicity: Cholesterol Grade 3 ([2]; 300 mg): 0
Worst treatment-emergent toxicity: Hemoglobin - change from baseline Grade 3 ([2]; 300 mg): 5 (7.1%)
Worst treatment-emergent toxicity: Hyperkalemia Grade 3 ([2]; 300 mg): 1 (1.4%)
Worst treatment-emergent toxicity: Hyperkalemia Grade 4 ([2]; 300 mg): 0
Worst treatment-emergent toxicity: Hypernatremia Grade 3 ([2]; 300 mg): 0
Worst treatment-emergent toxicity: Hypernatremia Grade 4 ([2]; 300 mg): 0
Worst treatment-emergent toxicity: Hypocalcemia Grade 4 ([2]; 300 mg): 1 (1.4%)
Worst treatment-emergent toxicity: Hypoglycemia Grade 3 ([2]; 300 mg): 0
Worst treatment-emergent toxicity: Hypokalemia Grade 3 ([2]; 300 mg): 0
Worst treatment-emergent toxicity: Hypokalemia Grade 4 ([2]; 300 mg): 0
Worst treatment-emergent toxicity: Hypomagnesemia Grade 3 ([2]; 300 mg): 1 (1.4%)
Worst treatment-emergent toxicity: Hyponatremia Grade 3 ([2]; 300 mg): 0
Worst treatment-emergent toxicity: Hypophosphatemia Grade 3 ([2]; 300 mg): 2 (2.7%)
Worst treatment-emergent toxicity: Neutrophils decrease Grade 3 ([2]; 300 mg): 1 (1.4%)
Worst treatment-emergent toxicity: Neutrophils decrease Grade 4 ([2]; 300 mg): 0
Worst treatment-emergent toxicity: Urine RBC increased Grade 3 ([2]; 300 mg): 3 (9.4%)
Worst treatment-emergent toxicity: Urine WBC increased Grade 3 ([2]; 300 mg): 0
Worst treatment-emergent toxicity: Urine glucose increased Grade 3 ([2]; 300 mg): 1 (1.4%)
Worst treatment-emergent toxicity: Urine protein increased Grade 3 ([2]; 300 mg): 0
Worst treatment-emergent toxicity: Glucose hyperglycemia Grade 3 ([2]; 600 mg, N 70): 0
Worst treatment-emergent toxicity: ALT increase by factor Grade 3 ([2]; 600 mg): 1
Worst treatment-emergent toxicity: ALT increase by factor Grade 4 ([2]; 600 mg): 1
Worst treatment-emergent toxicity: AST increase by factor Grade 4 ([2]; 600 mg): 1
Worst treatment-emergent toxicity: CPK Grade 3 ([2]; 600 mg): 2
Worst treatment-emergent toxicity: CPK Grade 4 ([2]; 600 mg): 1
Worst treatment-emergent toxicity: Cholesterol Grade 3 ([2]; 600 mg): 4
Worst treatment-emergent toxicity: Hemoglobin - change from baseline Grade 3 ([2]; 600 mg): 3
Worst treatment-emergent toxicity: Hyperkalemia Grade 3 ([2]; 600 mg): 1
Worst treatment-emergent toxicity: Hyperkalemia Grade 4 ([2]; 600 mg): 2
Worst treatment-emergent toxicity: Hypernatremia Grade 3 ([2]; 600 mg): 0
Worst treatment-emergent toxicity: Hypernatremia Grade 4 ([2]; 600 mg): 0
Worst treatment-emergent toxicity: Hypocalcemia Grade 4 ([2]; 600 mg): 0
Worst treatment-emergent toxicity: Hypoglycemia Grade 3 ([2]; 600 mg): 2
Worst treatment-emergent toxicity: Hypokalemia Grade 3 ([2]; 600 mg): 1
Worst treatment-emergent toxicity: Hypokalemia Grade 4 ([2]; 600 mg): 1
Worst treatment-emergent toxicity: Hypomagnesemia Grade 3 ([2]; 600 mg): 0
Worst treatment-emergent toxicity: Hyponatremia Grade 3 ([2]; 600 mg): 0
Worst treatment-emergent toxicity: Hypophosphatemia Grade 3 ([2]; 600 mg): 0
Worst treatment-emergent toxicity: Neutrophils decrease Grade 3 ([2]; 600 mg): 4
Worst treatment-emergent toxicity: Neutrophils decrease Grade 4 ([2]; 600 mg): 0
Worst treatment-emergent toxicity: Urine RBC increased Grade 3 ([2]; 600 mg): 5
Worst treatment-emergent toxicity: Urine WBC increased Grade 3 ([2]; 600 mg): 2
Worst treatment-emergent toxicity: Urine glucose increased Grade 3 ([2]; 600 mg): 0
Worst treatment-emergent toxicity: Urine protein increased Grade 3 ([2]; 600 mg): 2
laboratory values, electrocardiograms, and vital signs ([2]; clinical study): No safety concerns were noted
